The values below come from patent US7553826B2, “Cytarabine monophosphate prodrugs” (Metabasis Therapeutics, Inc., priority 2002, dated 2009).

Series [1] is described as follows: Rat acute toxicity, 24 hr continuous i.v. infusion. It is filed as in vivo. The settings on record: rats, 2000 mg/kg/24 hrs continuous i.v. infusion. The protocol: Male and female Simonsen rats were instrumented for continuous infusion as described in Example C. On the day of treatment, the rats were hooked up to the constant infusion tether and given free access to food and water. Three male and three female rats were treated Compound A at a dose of 2000 mg/kg/24 hrs using a flow rate of 2.08 ml/kg/hr. Compound A was dissolved at 42.5 mg/ml in water and the pH adjusted to 4 with 1M HCl. The osmolarity was adjusted to ˜300 mOsm using 5M NaCl. As a control, 2 male rats were infused with pH 4 saline for the same period of time. The appearance and disposition of the rats was monitored regularly and notes about their behavior recorded every 1-3 hrs during the working day.
The animals were anesthetized in a chamber supplied via a Fluotec 3 vaporizer with 5% isoflurane (Abbot Laboratories, NDC 0074-3292-02) in 100% oxygen at a flow rate of 1.5 to 2 liters per minute. […] The blood from each animal was divided between K2-EDTA-containing microtainer tubes (Becton Dickinson, 36/5974) and microtainer tubes with gel separators for serum (Becton Dickinson, 36/5956) and lithium heparin for plasma collection (Becton Dickinson, 36/5958). If possible, urine was removed from the bladder using a 23-gauge needle attached to a 3 cc syringe. Tissue samples were collected in the following order: liver, kidneys, small intestine, bladder and bone marrow. The small intestine was divided into three equal portions to represent samples from the duodenum, jejunum and ileum; fecal matter was manually removed by gentle sliding pressure using a blunt forceps. From each tissue, a portion was placed in 10% buffered formalin for histology.
For cell counting, […] of EDTA-treated blood or PBS-suspended bone marrow flush was mixed with 450 μL or 950 μL, respectively, nuclear staining solution containing 0.19 mg/mL crystal violet (Sigma # C-1658, lot 112H3660) in 1 M acetic acid, and incubated at room temperature for at least 5 min. After brief vortexing, a 10 μl aliquot of the mixture was placed in a hemocytometer and cells were counted using a Nikon Optiphot-2 microscope. The blood samples were counted under a 40× objective to evaluate the number of mononuclear cells (lymphocytes and monocytes) and polymorphonuclear cells (PMN, including granulocytes of the neutrophil, eosinophil and basophil type). Nucleated bone marrow cells were counted under a 10× objective.
EDTA-treated blood samples were submitted to LabCorp (San Diego, Calif.) for hematology analysis including erythrocyte and platelet numbers, hemoglobin, and hematocrit. Serum chemistry analysis was also performed by LabCorp. […]

Series [2] has as its system human liver microsomes. The experiment in a line: Enzyme kinetics of prodrug activation to araCMP in human liver microsomes.

Each structure is given as a SMILES string.

On to `Nc1ccn([C@@H]2O[C@H](CO[P@@]3(=O)OCC[C@@H](c4ccncc4)O3)[C@@H](O)[C@@H]2O)c(=O)n1` [Compound A, 2(1H)-Pyrimidinone, 4-amino-1-[5-O-[(2R,4S)-2-oxido-4-(4-pyridinyl)-1,3,2-dioxaphosphorinan-2-yl]-β-D-arabinofuranosyl]], for which, in series [1], the “serum chemistry and hematology parameters” value is recorded as “generally within normal ranges”; the serum triglycerides levels entry is reported as “outside the normal range”. The overt toxicity entry in series [1] (24 hr treatment) is “no overt toxicity was noted”. Also, the tolerability entry in series [1] (24 hrs) is “well tolerated”. Besides, the Vmax in series [2] (activation to araCMP, 2 mg/mL human liver microsomes lot RQX, 1 mM NADPH, pH 7.4, 37° C, 5 min) turned out to be 0.11 ± 0.02 nmol/min/mg. Further, in series [2] (activation to araCMP, human liver microsomes lot RQX), the Michaelis-Menten constant (Km) was 1.08 ± 0.27 mM. The “intrinsic clearance / activation rate relative to Compound B” value in series [2] (human liver microsomes lot RQX) came out at 2.6 fold.

The Vmax is the rate approached at saturating substrate. A word on the Km: it is the concentration of substrate that gives half-maximal velocity.
